Source: article PMC9268446 (Molecules, 2022)

What was measured:
EV-A71 3C^pro = EV-A71 3C^pro (Human enterovirus 71, UniProt Q66478); test: FRET assay, inhibition of enterovirus A71 3C protease; assay type: biochemical
Method: (§1) We had previously shown that enterovirus 3C proteases have a substrate-binding site featuring some similarities with coronavirus main proteases, although their S2 subsite tends to be more open. Leucine is the ideal P2-amino-acid residue in M^pro substrates, whereas most 3C^pros favor Phe in this position.
(§2) Assay samples contained 59 µL of reaction buffer (20 mM HEPES, 120 mM NaCl, 0.4 mM EDTA, 20% glycerol, 4 mM DTT (freshly added before the measurements), pH 7.0, 10 µL enzyme solution (final concentration of Coxsackievirus B3 3C^pro or enterovirus A71 3C^pro: 1.0 µM).
(§3) All reactions were monitored at 37 °C for 15 min. Measurements of enzymatic activity were performed in triplicate and the value was presented as mean ± standard deviation (SD). The initial velocity of the enzymatic reaction with compounds was calculated by linear regression for the first minute of the progression curve. […] V0 is the velocity obtained for the DMSO control (inhibitor concentration of 0 µM).
(§4) […] of inhibitors (dose-response-inhibition). The IC50 values were calculated by non-linear regression (Curve fit: Y: Bottom + (Top-Bottom)/(1 + 10^ ((X-lg IC50))) using GraphPad Prism 9.0.

CVB3 3C^pro = CVB3 3C^pro (Coxsackievirus B3, UniProt P03313); test: FRET assay, inhibition of Coxsackievirus B3 3C protease; assay type: biochemical
Sequence of CVB3 3C^pro (P03313 1541-1723): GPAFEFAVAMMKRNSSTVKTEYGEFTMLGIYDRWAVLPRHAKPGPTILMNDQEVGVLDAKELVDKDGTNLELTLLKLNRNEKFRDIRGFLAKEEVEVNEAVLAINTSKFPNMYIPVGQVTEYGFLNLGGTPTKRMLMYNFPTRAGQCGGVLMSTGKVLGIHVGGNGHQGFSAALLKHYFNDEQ
Method: as §1, §2, §3, §4

SARS-CoV-2 M^pro = SARS-CoV-2 M^pro (Severe acute respiratory syndrome coronavirus 2, UniProt P0DTD1); test: FRET assay, inhibition of recombinant SARS-CoV-2 Mpro (optimized conditions); assay type: biochemical; conditions: FRET substrate Dabcyl-KTSAVLQ↓SGFRKM-E(Edans)-NH2, 50 nM enzyme, pH 7.0, 37 °C, 10 min preincubation
HCoV-NL63 M^pro = HCoV-NL63 M^pro (Human coronavirus NL63, UniProt P0C6X5); test: biochemical
Sequence of HCoV-NL63 M^pro (P0C6X5 2940-3242): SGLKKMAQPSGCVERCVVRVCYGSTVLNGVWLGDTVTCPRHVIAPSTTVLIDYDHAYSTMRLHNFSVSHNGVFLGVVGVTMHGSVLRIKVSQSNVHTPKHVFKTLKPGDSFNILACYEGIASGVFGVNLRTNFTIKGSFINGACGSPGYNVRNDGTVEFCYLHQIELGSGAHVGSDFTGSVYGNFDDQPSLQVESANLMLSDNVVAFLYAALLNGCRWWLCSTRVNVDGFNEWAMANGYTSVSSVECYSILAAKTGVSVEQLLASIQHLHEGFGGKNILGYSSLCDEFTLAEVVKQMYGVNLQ

SARS-CoV M^pro = SARS-CoV M^pro (Severe acute respiratory syndrome coronavirus, UniProt P0C6X7); assay type: biochemical
[1] = inhibitor concentration not given, data not shown

Sequence of EV-A71 3C^pro (Q66478 1549-1731): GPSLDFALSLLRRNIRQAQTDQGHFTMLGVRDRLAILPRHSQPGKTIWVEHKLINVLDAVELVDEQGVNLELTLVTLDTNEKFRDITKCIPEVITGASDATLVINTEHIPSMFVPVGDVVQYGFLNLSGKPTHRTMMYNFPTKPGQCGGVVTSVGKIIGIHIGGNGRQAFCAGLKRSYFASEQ

## CC(C)(C)[C@H](NC(=O)C(F)(F)F)C(=O)N1C[C@H]2[C@@H]([C@H]1C(=O)N[C@H](C#N)C[C@@H]1CCNC1=O)C2(C)C [nirmatrelvir, reference compound]
EV-A71 3C^pro; [1]
  Inhibition rate against the 3C protease of EV-A71: 33%
CVB3 3C^pro; [1]
  Inhibition rate against the 3C protease of CVB3: 55%

## CNC(=O)C(=O)[C@H](C[C@@H]1CCNC1=O)NC(=O)[C@@H]1[C@@H]2[C@H](CN1C(=O)[C@@H](NC(=O)NC(C)(C)C)C(C)(C)C)C2(C)C [MG-131, (1R,2S,5S)-3-((S)-2-(3-tert-Butylureido)-3,3-dimethylbutanoyl) -6,6-dimethyl-N-((S)-4-(methylamino)-3,4-dioxo-1-((S)-2-oxopyrrolidin-3-yl)butan-2-yl)-3-azabicyclo[3.1.0]hexane-2-carboxamide]
SARS-CoV-2 M^pro
  IC50: 14 ± 3 nM

## CC(C)(C)NC(=O)NC(C(=O)N1CC2C(C1C(=O)NC(CC1CCNC1=O)C(=O)C(N)=O)C2(C)C)C(C)(C)C [MG-78, (1R,2S,5S)-N-((S)-4-Amino-3,4-dioxo-1-((S)-2-oxopyrrolidin-3-yl)butan2-yl)-3-((S)-2-(3-tert-butylureido)-3,3-dimethylbutanoyl)-6,6-dimethyl-3-azabicylo[3.1.0]hexane-2-carboxamide]
HCoV-NL63 M^pro
  Factor by which IC50 versus HCoV-NL63 M^pro is larger than that for SARS-CoV-2 M^pro: 25
  IC50: 330 nM
EV-A71 3C^pro; 10 µM FRET substrate Dabcyl-KEALFQ↓GPPQFE(-Edans)-NH2, 1.0 µM enzyme, 37 °C, read-out: IC50 against EV-A71 3C^pro
  IC50: 6700 nM
CVB3 3C^pro; 10 µM FRET substrate Dabcyl-KEALFQ↓GPPQFE(-Edans)-NH2, 1.0 µM enzyme, 37 °C, read-out: IC50 against CVB3 3C^pro
  IC50: 1450 nM

## CC1(C)C2CN(C(=O)C=Cc3ccccc3)C(C(=O)NC(CC3CCNC3=O)C(=O)C(=O)NCc3ccccc3)C21 (centres unmarked) [XDL2a]
SARS-CoV M^pro
  Activity in SARS-CoV M^pro assay: completely inactive
